Legend:
Assay in all cases: Test B postemergence
Format in all cases: in vivo
Conditions in all cases: scale 0 to 100
[1] = system: pigweed (Amaranthus retroflexus)
Description: (§1) Seeds of plant species selected from blackgrass (Alopecurus myosuroides), downy bromegrass (Bromus tectorum), green foxtail (Setaria viridis), Italian ryegrass (Lolium multiflorum), wheat (Triticum aestivum), wild oat (Avena fatua), galium (Galium aparine), bermudagrass (Cynodon dactylon), Surinam grass (Brachiaria decumbens), cocklebur (Xanthium strumarium), corn (Zea mays), large crabgrass (Digitaria sanguinalis), woolly cupgrass (Eriochloa villosa), giant foxtail (Setaria faberii), goosegrass (Eleusine indica), johnsongrass (Sorghum halepense), kochia (Kochia scoparia), lambsquarters (Chenopodium album), morningglory (Ipomoea coccinea), yellow nutsedge (Cyperus esculentus), pigweed (Amaranthus retroflexus), ragweed (Ambrosia elatior), soybean (Glycine max), velvetleaf (Abutilon theophrasti), barley (Hordeum vulgare), canarygrass (Phalaris minor), chickweed (Stellaria media), deadnettle (Lamium amplexicaule) and windgrass (Apera spica-venti) were planted in pots containing Redi-Earth® planting medium (Scotts Company, Marysville, Ohio, USA) comprising spaghnum peat moss, vermiculite, wetting agent and starter nutrients and treated postemergence with test compounds formulated in a non-phytotoxic solvent mixture which included a surfactant. Plants ranged in height from 2 to 18 cm (1- to 4-leaf stage).
(§2) Treated plants and controls were maintained in a greenhouse for 13 to 15 days, after which time all species were compared to controls and visually evaluated. Plant response ratings, summarized in Table B, are based on a scale of 0 to 100 where 0 is no effect and 100 is complete control. A dash (-) response means no test result.

[2] = system: Surinam grass (Brachiaria decumbens)
Description: as §1, §2

[3] = system: wheat (Triticum aestivum)
Description: as §1, §2

[4] = system: canarygrass (Phalaris minor)
Description: as §1, §2

[5] = system: downy bromegrass (Bromus tectorum)
Description: as §1, §2

[6] = system: deadnettle (Lamium amplexicaule)
Description: as §1, §2

[7] = system: green foxtail (Setaria viridis)
Description: as §1, §2

[8] = system: bermudagrass (Cynodon dactylon)
Description: as §1, §2

soybean (Glycine max) = system: soybean (Glycine max)
Description: as §1, §2

[9] = system: blackgrass (Alopecurus myosuroides)
Description: as §1, §2

barley (Hordeum vulgare) = system: barley (Hordeum vulgare)
Description: as §1, §2

[10] = system: lambsquarters (Chenopodium album)
Description: as §1, §2

[11] = system: woolly cupgrass (Eriochloa villosa)
Description: as §1, §2

[12] = system: goosegrass (Eleusine indica)
Description: as §1, §2

[13] = system: johnsongrass (Sorghum halepense)
Description: as §1, §2

[14] = system: morningglory (Ipomoea coccinea)
Description: as §1, §2

[15] = system: large crabgrass (Digitaria sanguinalis)
Description: as §1, §2

[16] = system: velvetleaf (Abutilon theophrasti)
Description: as §1, §2

kochia (Kochia scoparia) = system: kochia (Kochia scoparia)
Description: as §1, §2

wild oat (Avena fatua) = system: wild oat (Avena fatua)
Description: as §1, §2

[17] = system: chickweed (Stellaria media)
Description: as §1, §2

corn (Zea mays) = system: corn (Zea mays)
Description: as §1, §2

[18] = system: yellow nutsedge (Cyperus esculentus)
Description: as §1, §2

COCCn1c(-c2cc(F)cc(F)c2)c(Cl)nc(C(=O)C2=C(O)CCCC2=O)c1=O [Compound 6, 5-chloro-6-(3,5-difluorophenyl)-3-[(2-hydroxy-6-oxo-1-cyclohexen-1-yl)carbonyl]-1-(2-methoxyethyl)-2(1H)-pyrazinone]
Plant response rating, Pigweed ([1]; 31 g ai/ha): 80 | Plant response rating, Pigweed ([1]; 62 g ai/ha): 95 | Plant response rating, Pigweed ([1]; 125 g ai/ha): 98 | Plant response rating, Pigweed ([1]; 250 g ai/ha): 98 | Plant response rating, Surinam Grass ([2]; 31 g ai/ha): 75 | Plant response rating, Surinam Grass ([2]; 62 g ai/ha): 75 | Plant response rating, Surinam Grass ([2]; 125 g ai/ha): 85 | Plant response rating, Surinam Grass ([2]; 250 g ai/ha): 98 | Plant response rating, Wheat ([3]; 31 g ai/ha): 45 | Plant response rating, Wheat ([3]; 62 g ai/ha): 45 | Plant response rating, Wheat ([3]; 125 g ai/ha): 50 | Plant response rating, Wheat ([3]; 250 g ai/ha): 60 | Plant response rating, Canarygrass ([4]; 31 g ai/ha): 55 | Plant response rating, Canarygrass ([4]; 62 g ai/ha): 55 | Plant response rating, Canarygrass ([4]; 125 g ai/ha): 70 | Plant response rating, Canarygrass ([4]; 250 g ai/ha): 90 | Plant response rating, Bromegrass, Downy ([5]; 31 g ai/ha): 15 | Plant response rating, Bromegrass, Downy ([5]; 62 g ai/ha): 35 | Plant response rating, Bromegrass, Downy ([5]; 125 g ai/ha): 50 | Plant response rating, Bromegrass, Downy ([5]; 250 g ai/ha): 60 | Plant response rating, Deadnettle ([6]; 31 g ai/ha): 85 | Plant response rating, Deadnettle ([6]; 62 g ai/ha): 85 | Plant response rating, Deadnettle ([6]; 125 g ai/ha): 85 | Plant response rating, Deadnettle ([6]; 250 g ai/ha): 100 | Plant response rating, Foxtail, Green ([7]; 31 g ai/ha): 50 | Plant response rating, Foxtail, Green ([7]; 62 g ai/ha): 70 | Plant response rating, Foxtail, Green ([7]; 125 g ai/ha): 85 | Plant response rating, Foxtail, Green ([7]; 250 g ai/ha): 98 | Plant response rating, Bermudagrass ([8]; 31 g ai/ha): 5 | Plant response rating, Bermudagrass ([8]; 62 g ai/ha): 45 | Plant response rating, Bermudagrass ([8]; 125 g ai/ha): 75 | Plant response rating, Bermudagrass ([8]; 250 g ai/ha): 95 | Plant response rating, Soybean (soybean (Glycine max); 31 g ai/ha): 45 | Plant response rating, Soybean (soybean (Glycine max); 62 g ai/ha): 65 | Plant response rating, Soybean (soybean (Glycine max); 125 g ai/ha): 70 | Plant response rating, Soybean (soybean (Glycine max); 250 g ai/ha): 95 | Plant response rating, Blackgrass ([9]; 31 g ai/ha): 50 | Plant response rating, Blackgrass ([9]; 62 g ai/ha): 55 | Plant response rating, Blackgrass ([9]; 125 g ai/ha): 60 | Plant response rating, Blackgrass ([9]; 250 g ai/ha): 60 | Plant response rating, Barley (barley (Hordeum vulgare); 31 g ai/ha): 25 | Plant response rating, Barley (barley (Hordeum vulgare); 62 g ai/ha): 35 | Plant response rating, Barley (barley (Hordeum vulgare); 125 g ai/ha): 50 | Plant response rating, Barley (barley (Hordeum vulgare); 250 g ai/ha): 70 | Plant response rating, Lambsquarters ([10]; 31 g ai/ha): 80 | Plant response rating, Lambsquarters ([10]; 62 g ai/ha): 98 | Plant response rating, Lambsquarters ([10]; 125 g ai/ha): 100 | Plant response rating, Lambsquarters ([10]; 250 g ai/ha): 100 | Plant response rating, Cupgrass, Woolly ([11]; 31 g ai/ha): 90 | Plant response rating, Cupgrass, Woolly ([11]; 62 g ai/ha): 100 | Plant response rating, Cupgrass, Woolly ([11]; 125 g ai/ha): 100 | Plant response rating, Cupgrass, Woolly ([11]; 250 g ai/ha): 100 | Plant response rating, Goosegrass ([12]; 31 g ai/ha): 75 | Plant response rating, Goosegrass ([12]; 62 g ai/ha): 80 | Plant response rating, Goosegrass ([12]; 125 g ai/ha): 95 | Plant response rating, Goosegrass ([12]; 250 g ai/ha): 98 | Plant response rating, Johnsongrass ([13]; 31 g ai/ha): 80 | Plant response rating, Johnsongrass ([13]; 62 g ai/ha): 80 | Plant response rating, Johnsongrass ([13]; 125 g ai/ha): 85 | Plant response rating, Johnsongrass ([13]; 250 g ai/ha): 100 | Plant response rating, Morningglory ([14]; 31 g ai/ha): 95 | Plant response rating, Morningglory ([14]; 62 g ai/ha): 100 | Plant response rating, Morningglory ([14]; 125 g ai/ha): 100 | Plant response rating, Morningglory ([14]; 250 g ai/ha): 100 | Plant response rating, Crabgrass, Large ([15]; 31 g ai/ha): 75 | Plant response rating, Crabgrass, Large ([15]; 62 g ai/ha): 85 | Plant response rating, Crabgrass, Large ([15]; 125 g ai/ha): 95 | Plant response rating, Crabgrass, Large ([15]; 250 g ai/ha): 98 | Plant response rating, Velvetleaf ([16]; 31 g ai/ha): 60 | Plant response rating, Velvetleaf ([16]; 62 g ai/ha): 65 | Plant response rating, Velvetleaf ([16]; 125 g ai/ha): 80 | Plant response rating, Velvetleaf ([16]; 250 g ai/ha): 80 | Plant response rating, Kochia (kochia (Kochia scoparia); 31 g ai/ha): 5 | Plant response rating, Kochia (kochia (Kochia scoparia); 62 g ai/ha): 40 | Plant response rating, Kochia (kochia (Kochia scoparia); 125 g ai/ha): 40 | Plant response rating, Kochia (kochia (Kochia scoparia); 250 g ai/ha): 45 | Plant response rating, Oat, Wild (wild oat (Avena fatua); 31 g ai/ha): 10 | Plant response rating, Oat, Wild (wild oat (Avena fatua); 62 g ai/ha): 40 | Plant response rating, Oat, Wild (wild oat (Avena fatua); 125 g ai/ha): 40 | Plant response rating, Oat, Wild (wild oat (Avena fatua); 250 g ai/ha): 90 | Plant response rating, Chickweed ([17]; 31 g ai/ha): 10 | Plant response rating, Chickweed ([17]; 62 g ai/ha): 25 | Plant response rating, Chickweed ([17]; 125 g ai/ha): 55 | Plant response rating, Chickweed ([17]; 250 g ai/ha): 75 | Plant response rating, Corn (corn (Zea mays); 31 g ai/ha): 45 | Plant response rating, Corn (corn (Zea mays); 62 g ai/ha): 45 | Plant response rating, Corn (corn (Zea mays); 125 g ai/ha): 65 | Plant response rating, Corn (corn (Zea mays); 250 g ai/ha): 80 | Plant response rating, Nutsedge, Yellow ([18]; 31 g ai/ha): 40 | Plant response rating, Nutsedge, Yellow ([18]; 62 g ai/ha): 45 | Plant response rating, Nutsedge, Yellow ([18]; 125 g ai/ha): 80 | Plant response rating, Nutsedge, Yellow ([18]; 250 g ai/ha): 80

Source: patent US20140024527A1, “HERBICIDAL PYRAZINONES” (E I DU DE NEMOURS AND COMPANY, priority 2011, published 2014)
